From US9315490B2, “2,5-substituted pyrimidines” (Grünenthal GmbH, priority 2014, dated 2016)

Legend:
human PDE4B1 [1] = biological target: T1, human PDE4B1 (Homo sapiens, UniProt Q07343); experiment: cAMP HTRF assay to determine the activity of hPDE4B1; format: biochemical; details: inhibition of PDE4B at a test concentration of 1 μM
T1 construct: host or cells: Sf9 cells
Procedure, shortened: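 […], using HTRF quantitation of residual cAMP after 1 mM IBMX stop and 60 min detection. Enzyme was Sf9-expressed human PDE4B1 incubated 30 min at room temperature with 40 nM final cAMP at pH 7.8.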

human PDE4B1 [2] = biological target: T1, human PDE4B1; experiment: TR-FRET assay using the LANCE Ultra cAMP kit to determine the activity of hPDE4B1; format: biochemical; details: read-out: Inhibition in % (inhibition of PDE4B); for inhibition at 10 µM: test concentration 10 μM (marked in cell); for inhibition at 1 µM: test concentration 1 μM
Procedure, shortened: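 Sf9-expressed recombinant human PDE4B1 (0.96 U) hydrolyses 500 nM cAMP for 30 minutes at room temperature in 50 mM Tris-HCl, 50 mM MgCl2, 5 mM DTT, pH 8.5. The reaction is stopped with IBMX, and residual cAMP is measured by TR-FRET (665/620 ratio). IC50 comes from ten concentrations.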

T1 sequence (Q07343 whole entry): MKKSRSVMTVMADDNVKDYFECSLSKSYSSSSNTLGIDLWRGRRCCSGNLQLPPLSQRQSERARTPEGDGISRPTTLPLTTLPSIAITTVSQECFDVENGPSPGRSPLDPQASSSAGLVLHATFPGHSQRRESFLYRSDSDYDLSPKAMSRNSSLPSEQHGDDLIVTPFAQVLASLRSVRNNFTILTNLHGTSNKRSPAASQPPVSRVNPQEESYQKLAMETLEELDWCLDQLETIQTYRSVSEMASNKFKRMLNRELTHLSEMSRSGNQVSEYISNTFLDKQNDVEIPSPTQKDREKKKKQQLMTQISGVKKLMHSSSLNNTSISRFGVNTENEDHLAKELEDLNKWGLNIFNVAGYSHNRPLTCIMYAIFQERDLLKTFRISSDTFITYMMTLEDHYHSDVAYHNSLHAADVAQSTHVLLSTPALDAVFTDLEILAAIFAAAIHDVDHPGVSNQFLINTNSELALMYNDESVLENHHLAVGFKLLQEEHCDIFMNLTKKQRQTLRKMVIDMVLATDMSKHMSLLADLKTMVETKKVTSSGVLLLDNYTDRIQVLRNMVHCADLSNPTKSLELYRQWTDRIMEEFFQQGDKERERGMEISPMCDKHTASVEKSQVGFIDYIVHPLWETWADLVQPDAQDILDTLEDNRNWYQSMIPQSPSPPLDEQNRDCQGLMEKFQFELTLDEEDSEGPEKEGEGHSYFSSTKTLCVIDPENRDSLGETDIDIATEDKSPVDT

C[S+]([O-])c1cn(-c2ncc(-c3cc(C#N)ccc3F)cn2)c2cc(C(=O)N3CCOCC3)ccc12 (centres unmarked) [Example 2, 4-Fluoro-3-(2-(3-(methylsulfinyl)-6-(morpholine-4-carbonyl)-1H-indol-1yl)pyrimidin-5-yl)benzonitrile]
inhibition at 1 µM (human PDE4B1 [1]): 98%
melting point: 262 to 266 °C

C[S+]([O-])c1cn(-c2ncc(-c3ccccc3Cl)cn2)c2cc(C(=O)N3CCOCC3)ccc12 (centres unmarked) [Example 3, (1-(5-(2-Chlorophenyl)pyrimidin-2-yl)-3-(methylsulfinyl)-1H-indol-6-yl)(morpholino) methanone]
inhibition at 1 µM (human PDE4B1 [1]): 98%
melting point: 226 to 230 °C

C[S+]([O-])c1cn(-c2ncc(-c3ccccc3)cn2)c2cc(C(=O)N3CCOCC3)ccc12 (centres unmarked) [Example 4, (3-(Methylsulfinyl)-1-(5-phenylpyrimidin-2-yl)-1H-indol-6-yl)(morpholino) methanone]
inhibition at 1 µM (human PDE4B1 [1]): 82%
melting point: 239 to 242 °C

CS(=O)(=O)c1cn(-c2ncc(-c3ccc(F)cc3F)cn2)c2cc(C(=O)N3CCOCC3)ccc12 [Example 6, (1-(5-(2,4-Difluorophenyl)pyrimidin-2-yl)-3-(methylsulfonyl)-1H-indol-6-yl)(morpholino)methanone]
inhibition at 1 µM (human PDE4B1 [1]): 88%
melting point: 247 to 252 °C

CS(=O)(=O)c1cn(-c2ncc(-c3ccc(C(N)=O)cc3F)cn2)c2cc(C(=O)N3CCOCC3)ccc12 [Example 7, 3-Fluoro-4-(2-(3-(methylsulfonyl)-6-(morpholine-4-carbonyl)-1H-indol-1-yl)pyrimidin-5-yl)benzamide]
inhibition at 1 µM (human PDE4B1 [1]): 88%
melting point: 263 to 266 °C

CS(=O)(=O)c1cn(-c2ncc(-c3ccccc3C#N)cn2)c2cc(C(=O)N3CCOCC3)ccc12 [Example 8, 2-(2-(3-(Methylsulfonyl)-6-(morpholine-4-carbonyl)-1H-indol-1-yl)pyrimidin-5-yl)benzonitrile]
inhibition at 1 µM (human PDE4B1 [1]): 50%
melting point: 265 to 269 °C

CS(=O)(=O)c1cn(-c2ncc(-c3ccccc3Cl)cn2)c2cc(C(=O)N3CCOCC3)ccc12 [Example 9, (1-(5-(2-Chlorophenyl)pyrimidin-2-yl)-3-(methylsulfonyl)-1H-indol-6-yl)(morpholino)methanone]
inhibition at 1 µM (human PDE4B1 [1]): 78%
melting point: 235 to 239 °C

CS(=O)(=O)c1cn(-c2ncc(-c3ccccc3)cn2)c2cc(C(=O)N3CCOCC3)ccc12 [Example 10, (3-(Methylsulfonyl)-1-(5-phenylpyrimidin-2-yl)-1H-indol-6-yl)(morpholino) methanone]
inhibition at 1 µM (human PDE4B1 [1]): 74%
melting point: 270 to 274 °C

CS(=O)(=O)c1cn(-c2ncc(-c3ccccc3F)cn2)c2cc(C(=O)N3CCOCC3)ccc12 [Example 11, (1-(5-(2-Fluorophenyl)pyrimidin-2-yl)-3-(methylsulfonyl)-1H-indol-6-yl)(morpholino)methanone]
inhibition at 1 µM (human PDE4B1 [1]): 109%
melting point: 267 to 270 °C

C[S+]([O-])c1cn(-c2ncc(-c3ccccc3C#N)cn2)c2cc(C(=O)N3CCNCC3)ccc12 (centres unmarked) [Example 16, 2-(2-(3-(Methylsulfinyl)-6-(piperazine-1-carbonyl)-1H-indol-1-yl)pyrimidin-5-yl)benzonitrile]
melting point: 230 to 235 °C

CS(=O)(=O)c1cn(-c2ncc(-c3ccc(F)cc3F)cn2)c2cc(C(=O)N3CCNCC3)ccc12 [Example 23, (1-(5-(2,4-Difluorophenyl)pyrimidin-2-yl)-3-(methylsulfonyl)-1H-indol-6-yl)(piperazin-1-yl)methanone]
melting point: 229 to 233 °C

CS(=O)(=O)c1cn(-c2ncc(-c3ccccc3C#N)cn2)c2cc(C(=O)N3CCNCC3)ccc12 [Example 25, 2-(2-(3-(Methylsulfonyl)-6-(piperazine-1-carbonyl)-1H-indol-1-yl)pyrimidin-5-yl)benzonitrile]
melting point: 193 to 197 °C

C[S+]([O-])c1cn(-c2ncc(-c3ncc(C#N)s3)cn2)c2cc(C(=O)N3CCOCC3)ccc12 (centres unmarked) [Example 207, 2-(2-(3-(Methylsulfinyl)-6-(morpholine-4-carbonyl)-1H-indol-1-yl)pyrimidin-5-yl)thiazole-5-carbonitrile]
melting point: 280 to 283 °C

Cc1ccc(F)c(-c2cnc(-n3cc(C(C)O)c4ccc(C(=O)N(C)C)cc43)nc2)c1 (centres unmarked) [Example 322, 1-(5-(2-Fluoro-5-methylphenyl)pyrimidin-2-yl)-3-(1-hydroxyethyl)-N,N-dimethyl-1H-indole-6-carboxamide]
inhibition at 10 µM (human PDE4B1 [2]): 100%

Cc1ccc(F)c(-c2cnc(-n3cc(C(C)O)c4ccc(C(=O)N(C)CC(N)=O)cc43)nc2)c1 (centres unmarked) [Example 323, N-(2-Amino-2-oxoethyl)-1-(5-(2-fluoro-5-methylphenyl)pyrimidin-2-yl)-3-(1-hydroxyethyl)-N-methyl-1H-indole-6-carboxamide]
inhibition at 10 µM (human PDE4B1 [2]): 103%

CC(C)c1ccnc(-c2cnc(-n3cc(S(C)(=O)=O)c4ccc(C(=O)N5CCOCC5)cc43)nc2)c1 [Example 324, (1-(5-(4-Isopropylpyridin-2-yl)pyrimidin-2-yl)-3-(methylsulfonyl)-1H-indol-6-yl)(morpholino)methanone]
inhibition at 1 µM (human PDE4B1 [2]): 76%

CCc1ccnc(-c2cnc(-n3cc(S(C)(=O)=O)c4ccc(C(=O)N5CCOCC5)cc43)nc2)c1 [Example 325, (1-(5-(4-Ethylpyridin-2-yl)pyrimidin-2-yl)-3-(methylsulfonyl)-1H-indol-6-yl)(morpholino)methanone]
inhibition at 10 µM (human PDE4B1 [2]): 91%

CCOc1ccc(F)c(-c2cnc(-n3cc(S(C)(=O)=O)c4ccc(C(=O)N5CCOCC5)cc43)nc2)c1 [Example 326, (1-(5-(5-Ethoxy-2-fluorophenyl)pyrimidin-2-yl)-3-(methylsulfonyl)-1H-indol-6-yl)(morpholino)methanone]
inhibition at 1 µM (human PDE4B1 [2]): 98%

CS(=O)(=O)c1cn(-c2ncc(-c3cc(C4CC4)ccn3)cn2)c2cc(C(=O)N3CCOCC3)ccc12 [Example 327, (1-(5-(4-Cyclopropylpyridin-2-yl)pyrimidin-2-yl)-3-(methylsulfonyl)-1H-indol-6-yl)(morpholino)methanone]
inhibition at 10 µM (human PDE4B1 [2]): 90%

Cc1ccc(F)c(-c2cnc(-n3cc(S(C)(=O)=O)c4ccc(C(=O)N(C)CC(N)=O)cc43)nc2)c1 [Example 328, N-(2-Amino-2-oxoethyl)-1-(5-(2-fluoro-5-methylphenyl)pyrimidin-2-yl)-N-methyl-3-(methylsulfonyl)-1H-indole-6-carboxamide]
inhibition at 10 µM (human PDE4B1 [2]): 89%

CCc1ccc(F)c(-c2cnc(-n3cc(C(C)O)c4ccc(C(=O)N(C)CC(N)=O)cc43)nc2)c1 (centres unmarked) [Example 331, N-(2-Amino-2-oxoethyl)-1-(5-(5-ethyl-2-fluorophenyl)pyrimidin-2-yl)-3-(1-hydroxyethyl)-N-methyl-1H-indole-6-carboxamide]
inhibition at 10 µM (human PDE4B1 [2]): 109%

Cc1ccnc(-c2cnc(-n3cc(C(C)O)c4ccc(C(=O)N(C)CC(N)=O)cc43)nc2)c1 (centres unmarked) [Example 332, N-(2-Amino-2-oxoethyl)-3-(1-hydroxyethyl)-N-methyl-1-(5-(4-methylpyridin-2-yl)pyrimidin-2-yl)-1H-indole-6-carboxamide]
inhibition at 10 µM (human PDE4B1 [2]): 82%

Cc1ccnc(-c2cnc(-n3cc([S+](C)[O-])c4ccc(C(=O)N5CC[C@@H](N)C5)cc43)nc2)c1 (stereo partly drawn) [Example 336, ((R)-3-Aminopyrrolidin-1-yl)(1-(5-(4-methylpyridin-2-yl)pyrimidin-2-yl)-3-(methylsulfinyl)-1H-indol-6-yl)methanone]
inhibition at 10 µM (human PDE4B1 [2]): 64%

C[S+]([O-])c1cn(-c2ncc(-c3cc(C4CC4)ccn3)cn2)c2cc(C(=O)N3CCCC3)ccc12 (centres unmarked) [Example 341, (1-(5-(4-Cyclopropylpyridin-2-yl)pyrimidin-2-yl)-3-(methylsulfinyl)-1H-indol-6-yl)(pyrrolidin-1-yl)methanone]
inhibition at 10 µM (human PDE4B1 [2]): 108%

COc1ccnc(-c2cnc(-n3cc([S+](C)[O-])c4ccc(C(=O)N5CCCC5)cc43)nc2)c1 (centres unmarked) [Example 342, (1-(5-(4-Methoxypyridin-2-yl)pyrimidin-2-yl)-3-(methylsulfinyl)-1H-indol-6-yl)(pyrrolidin-1-yl)methanone]
inhibition at 10 µM (human PDE4B1 [2]): 113%

CCOc1ccnc(-c2cnc(-n3cc([S+](C)[O-])c4ccc(C(=O)N5CCCC5)cc43)nc2)c1 (centres unmarked) [Example 343, (1-(5-(4-Ethoxypyridin-2-yl)pyrimidin-2-yl)-3-(methylsulfinyl)-1H-indol-6-yl)(pyrrolidin-1-yl)methanone]
inhibition at 10 µM (human PDE4B1 [2]): 100%

CS(=O)(=O)c1cn(-c2ncc(-c3ccccc3F)cn2)c2cc(C(=O)N3C[C@H]4C[C@@H]3CO4)ccc12 [Example 349, (1R,4R)-2-Oxa-5-azabicyclo[2.2.1]heptan-5-yl(1-(5-(2-fluorophenyl)pyrimidin-2-yl)-3-(methylsulfonyl)-1H-indol-6-yl)methanone]
inhibition at 10 µM (human PDE4B1 [2]): 92%

Cc1ccc(F)c(-c2cnc(-n3cc(S(C)(=O)=O)c4ccc(C(=O)N5CCOCC5)cc43)nc2)c1 [Example 350, (1-(5-(2-Fluoro-5-methylphenyl)pyrimidin-2-yl)-3-(methylsulfonyl)-1H-indol-6-yl)(morpholino)methanone]
inhibition at 1 µM (human PDE4B1 [2]): 93%

Cc1ccnc(-c2cnc(-n3cc(S(C)(=O)=O)c4ccc(C(=O)N5CCOCC5)cc43)nc2)c1 [Example 353, (1-(5-(4-Methylpyridin-2-yl)pyrimidin-2-yl)-3-(methylsulfonyl)-1H-indol-6-yl)(morpholino)methanone]
inhibition at 1 µM (human PDE4B1 [2]): 54%
